Residues, ends and D or L forms follow the SMILES beside them. No end group written: not given here.
Tests used:
[1] = Peptide-lipid overlay assay; type: binding; details: 2 μM peptide, 1 h
Method: Membrane lipid strips (Echelon Biosciences, P-6002) were incubated for 1 h in blocking solution (3 % BSA in TBS-Tween 0.1 %) with gentle agitation followed by four 8-min washes in TBS-Tween. Then, strips were incubated with 2 μM of NCR169C17–38 in blocking solution for 1 h. Not bound peptide was washed off by four 8-min washes in TBS-Tween. The bound StrepII-tagged peptide was then detected on the strips using the same procedure described for the dot blot, except that chemiluminescence was visualized with an iBright™ FL1500 Imaging System (Invitrogen).
As shown above, NCR169C17–38 causes rapid damage to bacterial membranes. Since membrane structure is largely determined by its lipid composition, we next investigated the ability of NCR169C17–38-StrepII to bind membrane lipids in vitro using a peptide-lipid overlay assay (Supplementary Fig. 3.A). NCR169C17–38-StrepII bound to several anionic lipids, including phosphoinositides, phosphatidic acid, phosphatidylserine, and cardiolipin - a major constituent of bacterial membranes.

[2] = 25, 12.5, 6.3, 3.1 µM in PPB, overnight at room temperature or 80 °C for 20 min; StrepII detection
Method: For heat stability test serial dilutions of the NCR169C17–38-StrepII peptide were prepared in PPB at concentrations of 25, 12.5, 6.3, 3.1 µM, following the same protocol used in the antimicrobial assay. One set of samples was incubated overnight at 37 °C with shaking, another set was subjected to heat stress at 80 °C for 20 min, while one set was freshly prepared. Dot-blot analysis was performed by spotting 5 µl of each peptide solution onto a 0.22 µm nitrocellulose membrane (Bio-Rad). Detection of the StrepII-tagged peptide was carried out using the Precision Protein StrepTactin-HRP conjugate (Bio-Rad), following the manufacturer’s recommended protocol. Signal development was achieved using the Clarity Western ECL Substrate (Bio-Rad), with the membrane incubated for 5 min at room temperature, followed by exposure to Fuji Medical X-ray film for visualization.
Peptide dilutions (25, 12.5, 6.3, and 3.1 µM) in PPB were either incubated overnight at room temperature (RT) or heated at 80 °C for 20 min.

[3] = system: E. coli; assay: Antimicrobial test after heat stress or storage of the peptide; type: cell-based, Escherichia coli; details: then tested against E. coli, 3.1 µM = lowest dilution tested
Method: (B) NCR169C17-38-StrepII remains active against E. coli even at 3.1 µM after 20 minutes of treatment at 80 °C or incubation at room temperature for 24 hrs. Bacterial viability was assessed by plating 5 µL aliquots after treatment on LB agar. Only non-treated control cells could grow.

[4] = type: physicochemical; details: pH 7.4
[5] = system: Enterococcus faecalis (ATCC 29212); assay: Minimal bactericidal concentration (MBC) assay; type: cell-based
From the text: (§1) The Gram-positive strains Enterococcus faecalis (ATCC 29212), Staphylococcus aureus (HNCMO112011), and Listeria monocytogenes (ATCC 19111), and the Gram-negative strains Pseudomonas aeruginosa (ATCC 27853), Escherichia coli (ATCC 8739), Salmonella enterica (ATCC 13076), Klebsiella pneumoniae (NCTC 13440), and Acinetobacter baumannii (ATCC 17978) were obtained from ATCC (United States) and NCTC (National Collection of Type Cultures – England).
(§2) Minimal bactericidal concentrations (MBC) of peptides and reference antibiotics were determined in 20 mM potassium phosphate buffer (PPB, pH 7.4) and Mueller–Hinton broth (MHB) as described by ([Jenei et al., 2020]). Briefly, bacterial cultures were grown to mid-log phase, washed, adjusted to OD₆₀₀ = 0.1 (∼10⁷ CFU/mL), added 10 μl of it into 100 μl mixture and incubated in 96-well plates with 2-fold serial dilutions of peptides or antibiotics. After incubation at 37 °C with shaking, bacterial viability was assessed by plating 5 μL aliquots on LB agar. MBC was defined as the lowest concentration yielding no colony growth. Experiments were done at least in three biological replicates.
(§3) NCR169, its oxidized form (NCR169ox), and its variant in which the four cysteines were replaced with serines (NCR169-C9,15,28,33/S) (Table 1.A) were chemically synthesized with C-terminal amidation. These peptides were tested for antimicrobial activity against a panel of ESKAPE pathogens - Enterococcus faecalis, Staphylococcus aureus, Klebsiella pneumoniae, Acinetobacter baumannii, Pseudomonas aeruginosa, E. coli - as well as Listeria monocytogenes and Salmonella enterica. Peptides were applied to 10^6 log-phase bacterial cultures in a two-fold dilution series (25 - 0.1 µM) in potassium phosphate buffer (PPB) at pH 7.4. After three hours of incubation, 5 µl of each treatment was plated on LB agar and incubated overnight at 37 °C to assess bacterial survival. Minimal bactericidal concentrations (MBCs), defined as the lowest concentration eliminating bacterial growth, are presented in Table 1B.

[6] = system: Acinetobacter baumannii (ATCC 17978); type: cell-based; details: short derivatives; 20 mM PPB at pH 7.4
From the text: as §1, §2, §3

[7] = system: Staphylococcus aureus (HNCMO112011); type: cell-based; details: for MBC S. a.: short derivatives, 20 mM PPB at pH 7.4
From the text: as §1, §2, §3

[8] = system: Listeria monocytogenes (ATCC 19111); assay: Minimal bactericidal concentration (MBC) assay; type: cell-based; details: short derivatives; 20 mM PPB at pH 7.4
From the text: as §1, §2, §3

[9] = system: Salmonella enterica (ATCC 13076); assay: Minimal bactericidal concentration (MBC) assay; type: cell-based; details: short derivatives; 20 mM PPB at pH 7.4
From the text: as §1, §2, §3

[10] = system: Pseudomonas aeruginosa (ATCC 27853); assay: Minimal bactericidal concentration (MBC) assay; type: cell-based; details: short derivatives; 20 mM PPB at pH 7.4
From the text: as §1, §2, §3

[11] = system: Klebsiella pneumoniae (NCTC 13440); assay: Minimal bactericidal concentration (MBC) assay; type: cell-based; details: short derivatives; 20 mM PPB at pH 7.4
From the text: as §1, §2, §3

[12] = system: Escherichia coli (ATCC 8739); type: cell-based; details: ATCC 8739, 3 h
From the text: as §1
as §2, with “Experiments were done at least in three biological replicates.” left out
Three biological replicates were treated at OD600 = 0.2 with a final concentration of 1.6 µM NCR169C17–38 peptide for 20 min, while the control samples were treated with the same amount of water for 20 min. […] Quality and quantity was detected using 2200 TapeStation (Agilent) and Qubit RNA BR Assay […]

[13] = short derivatives, 20 mM PPB at pH 7.4

| Compound | MBC S. a. [7] | MBC L. m. [8] | MBC S. e. [9] | MBC P. a. [10] | MBC K. p. [11] | MBC E. f. [5, 13] | also measured |
| --- | --- | --- | --- | --- | --- | --- | --- |
| CC[C@H](C)[C@H](NC(=O)[C@H](CCCCN)NC(=O)[C@H](Cc1ccccc1)NC(=O)[C@H](CC(C)C)NC(=O)[C@@H]1CCCN1C(=O)[C@H](CCCCN)NC(=O)[C@H](CCCCN)NC(=O)[C@H](CO)NC(=O)[C@@H](N)CCCCN)C(=O)N[C@@H](Cc1c[nH]c2ccccc12)C(=O)N[C@@H](CCCCN)C(=O)N[C@@H](CS)C(=O)N[C@H](C(=O)N[C@@H](CCC(=O)O)C(=O)N[C@@H](CC(N)=O)C(=O)N[C@H](C(=O)N[C@@H](CS)C(=O)N[C@H](C(=O)N[C@@H](CC(C)C)C(=O)N[C@@H](Cc1c[nH]c2ccccc12)C(=O)N[C@@H](Cc1ccc(O)cc1)C(=O)N[C@@H](CCCCN)C(=O)N[C@@H](Cc1c[nH]c2ccccc12)C(=O)N[C@@H](CO)C(=O)N[C@@H](Cc1c[nH]cn1)C(=O)N1CCC[C@H]1C(=O)N[C@@H](CCC(N)=O)C(=O)N[C@@H](Cc1ccccc1)C(=O)N[C@@H](CCC(=O)O)C(=O)N[C@@H](CCCCN)C(N)=O)C(C)C)C(C)C)C(C)C [NCR169C17–38-StrepII] (H-KSKKPLFKIWKCVENVCVLWYKWSHPQFEK-NH2; N-terminus assumed) |  |  |  |  |  |  | binding to phosphatidylglycerol (PG) on lipid strip [1]: did not bind; binding to anionic lipids on lipid strip ([1]; phosphoinositides, phosphatidic acid, phosphatidylserine, cardiolipin): bound; peptide stability by dot blot [2]: confirmed its stability; lowest concentration still bactericidal after heat stress ([3]; peptide in PPB heated 20 minutes at 80 °C): ≤ 3.1 µM; lowest concentration still bactericidal after storage ([3]; peptide in PPB incubated at room temperature for 24 hrs (overnight)): ≤ 3.1 µM |
| EDIGHIKYCGIVDDCYKSKKPLFKIWKCVENVCVLWYK (disulfide) (disulfide (positions not given here); also: disulfide pairing not given here) [NCR169ox, oxidized form of NCR169] |  |  |  |  |  |  | solubility / visible turbidity upon peptide addition [4]: no visible turbidity; MBC E. f. ([5]; PPB pH 5.8, 3 h treatment, plated on LB agar): - (lack of bactericidal activity up to 25 µM); MBC E. f. ([5]; PPB pH 7.4, 3 h treatment, 10^6 log-phase bacteria, two-fold dilutions 25-0.1 µM, plated on LB agar, * = best MBC value measured, more than two fold dilution differences in replicates): - (lack of bactericidal activity up to 25 µM) |
| KCVENVCVLWYK [NCR169_27–38, shorter C-terminal fragment of NCR169C17–38] | - (lack of bactericidal activity up to 25 µM) | - (lack of bactericidal activity up to 25 µM) | - (lack of bactericidal activity up to 25 µM) | - (lack of bactericidal activity up to 25 µM) | - (lack of bactericidal activity up to 25 µM) | - (lack of bactericidal activity up to 25 µM) | MBC A. b. [6]: - (lack of bactericidal activity up to 25 µM) |
| PLFKIWKCVENVCVLWYK [NCR169_21–38, shorter C-terminal fragment of NCR169C17–38] | - (lack of bactericidal activity up to 25 µM) | - (lack of bactericidal activity up to 25 µM) | - (lack of bactericidal activity up to 25 µM) | - (lack of bactericidal activity up to 25 µM) | - (lack of bactericidal activity up to 25 µM) | - (lack of bactericidal activity up to 25 µM) |  |
| YKSKKPLFKIWK-NH2 [NCR169_16–27] |  |  |  |  |  |  | MBC Sa ([7]; HNCMO112011, 3 h): 25 µM; MBC Ec [12]: 6.3 µM |
